Data: patent US6642266B2, “EP4 receptor selective agonists in the treatment of osteoporosis” (Pfizer Inc., priority 1999, dated 2003)

Key:
EP4 receptor = target: T1, EP4 receptor (Rattus norvegicus, UniProt P43114); assay: Assay for binding to prostaglandin E2 receptors (3H-PGE2 displacement), EP4
T1 construct: expressed in transfected cells
Protocol: (§1) Membrane Preparation: All operations are performed at 4° C. Transfected cells expressing prostagiandin E2 type 1 receptors (EP1), type 2 (EP2), type 3 (EP3) or type 4 (EP4) receptors are harvested and suspended to 2 million cells per ml in Buffer A [50 mM Tris-HCl (pH 7.4), 10 mM MgCl2, 1 mM EDTA, 1 mM Pefabloc peptide, (Boehringer Mannheim Corp., Indianapolis, Ind.), 10 uM Phosporamidon peptide, (Sigma, St. Louis, Mo.), 1 uM pepstatin A peptide, (Sigma, St. Louis, Mo.), 10 uM elastatinal peptide, (Sigma, St. Louis, Mo.), 100 uM antipain peptide, (Sigma, St. Louis, Mo.)]. The cells are lysed by sonification with a Branson Sonifier (Model #250, Branson Ultrasonics Corporation, Danbury, Conn.) in 2 fifteen second bursts. Unlysed cells and debris are removed by centrifugation at 100×g for 10 min. […] Pelleted membranes are resuspended to 3-10 mg of protein per ml of Buffer A, the protein concentration being determined by the method of Bradford [Bradford, M., Anal. Biochem., 72, 248 (1976)]. […]
(§2) Binding Assay: Frozen membranes prepared as above are thawed and diluted to 0.5 mg/ml (for rat EP2) or 0.3 mg/ml (for rat EP4) in Buffer A above. […] To determine the amount of ^3H-prostaglandin bound to the membranes, the dried filters are placed into plastic bags with scintillation fluid and counted in a LKB 1205 Betaplate reader (Wallac, Gaithersburg, Md.). […]

EP1 receptor = target: T2, EP1 receptor (Homo sapiens, UniProt P34995); assay: Assay for binding to prostaglandin E2 receptors (3H-PGE2 displacement), EP1; conditions: read-out: IC50 at EP1 receptor subtype
T2 construct: expressed in transfected cells
T2 sequence (P34995 1-402): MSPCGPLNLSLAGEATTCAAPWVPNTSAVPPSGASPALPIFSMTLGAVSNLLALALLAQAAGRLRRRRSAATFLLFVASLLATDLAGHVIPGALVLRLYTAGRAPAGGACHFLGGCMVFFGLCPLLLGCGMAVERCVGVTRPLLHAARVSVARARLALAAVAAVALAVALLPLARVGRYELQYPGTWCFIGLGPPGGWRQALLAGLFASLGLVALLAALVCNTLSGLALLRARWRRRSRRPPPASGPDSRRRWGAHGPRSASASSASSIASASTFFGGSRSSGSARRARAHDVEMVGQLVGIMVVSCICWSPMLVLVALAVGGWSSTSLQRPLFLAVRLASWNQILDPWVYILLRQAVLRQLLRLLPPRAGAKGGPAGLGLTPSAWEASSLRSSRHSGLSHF
Protocol: as §1, §2

EP2 receptor = target: T3, EP2 receptor (Rattus norvegicus, UniProt Q62928); assay: Assay for binding to prostaglandin E2 receptors (3H-PGE2 displacement), EP2; conditions: read-out: IC50 at EP2 receptor subtype
T3 construct: expressed in transfected cells
Protocol: as §1, §2

EP3 receptor = target: T4, EP3 receptor (Homo sapiens, UniProt P43115); assay: Assay for binding to prostaglandin E2 receptors (3H-PGE2 displacement), EP3; conditions: read-out: IC50 at EP3 receptor subtype
T4 construct: expressed in transfected cells
T4 sequence (P43115 1-390): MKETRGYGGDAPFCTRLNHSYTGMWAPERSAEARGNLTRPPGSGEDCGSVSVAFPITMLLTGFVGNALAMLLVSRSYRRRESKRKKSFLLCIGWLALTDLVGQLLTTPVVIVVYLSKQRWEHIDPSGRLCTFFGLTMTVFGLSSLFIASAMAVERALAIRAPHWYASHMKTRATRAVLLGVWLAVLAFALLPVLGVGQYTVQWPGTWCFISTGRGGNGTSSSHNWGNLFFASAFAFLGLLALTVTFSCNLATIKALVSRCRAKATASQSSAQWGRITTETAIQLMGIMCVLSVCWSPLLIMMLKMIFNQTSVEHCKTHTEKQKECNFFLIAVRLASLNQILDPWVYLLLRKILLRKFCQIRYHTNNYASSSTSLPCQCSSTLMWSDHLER
Protocol: as §1, §2

OVX rat model = assay: Bone mass restoration in OVX rat model (femoral DEXA); format: in vivo; conditions: subcutaneous 30 mg/kg/day for 28 days
Protocol: The purpose of this study is to determine whether an EP4 receptor selective agonist, and specifically 7-(2-(3-hydroxy-4-phenyl-butyl)-5-oxo-pyrrolidin-1-yl)-heptanoic acid, can restore bone mass in OVX rat model.
Sprague-Dawley […] rats were ovariectomized (OVX) at 3.5 months of age. Ten months after OVX, the rats were treated by subcutaneous injection with vehicle or 7-(2-(3-hydroxy-4-phenyl-butyl)-5-oxo-pyrrolidin-1-yl)-heptanoic acid at 30 mg/kg/day for 28 days. The rats were autopsied. The right femur from each rat was removed at autopsy and scanned using dual energy x-ray absorptiometry (DEXA, QDR 1000/W, Hologic Inc., Waltham, Mass.) equipped with “Regional High Resolution Scan” software (Hologic Inc., Waltham, Mass.). The scan field size was 5.08×1.902 cm, resolution is 0.0254×0.0127 cm and the scan speed was 7.25 mm/second. The femoral scan images were analyzed. Bone mineral content (BMC) and bone mineral density (BMD) of whole femora (WF), distal femoral metaphysis (DFM), and femoral shaft (FS) were determined according to the method described in H. Z. Ke et al., Droloxifene, a New Estrogen Antagonist/Agonist, Prevents Bone Loss in Ovariectomized Rats. ENDOCRINOLOGY 136;2435-2441, 1995.

[1] = OVX rats, compared with OVX rats treated with vehicle

T3 sequence (Q62928 whole entry): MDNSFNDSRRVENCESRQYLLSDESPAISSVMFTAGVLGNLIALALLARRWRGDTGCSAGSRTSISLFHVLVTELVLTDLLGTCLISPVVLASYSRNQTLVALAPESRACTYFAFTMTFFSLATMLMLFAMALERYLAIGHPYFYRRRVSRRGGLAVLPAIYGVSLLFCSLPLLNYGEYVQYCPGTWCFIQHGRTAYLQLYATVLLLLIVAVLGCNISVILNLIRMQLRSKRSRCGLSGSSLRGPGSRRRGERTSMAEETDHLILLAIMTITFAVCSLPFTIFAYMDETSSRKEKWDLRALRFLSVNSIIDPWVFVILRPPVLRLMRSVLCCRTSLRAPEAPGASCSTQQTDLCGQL
T1 sequence (P43114 whole entry): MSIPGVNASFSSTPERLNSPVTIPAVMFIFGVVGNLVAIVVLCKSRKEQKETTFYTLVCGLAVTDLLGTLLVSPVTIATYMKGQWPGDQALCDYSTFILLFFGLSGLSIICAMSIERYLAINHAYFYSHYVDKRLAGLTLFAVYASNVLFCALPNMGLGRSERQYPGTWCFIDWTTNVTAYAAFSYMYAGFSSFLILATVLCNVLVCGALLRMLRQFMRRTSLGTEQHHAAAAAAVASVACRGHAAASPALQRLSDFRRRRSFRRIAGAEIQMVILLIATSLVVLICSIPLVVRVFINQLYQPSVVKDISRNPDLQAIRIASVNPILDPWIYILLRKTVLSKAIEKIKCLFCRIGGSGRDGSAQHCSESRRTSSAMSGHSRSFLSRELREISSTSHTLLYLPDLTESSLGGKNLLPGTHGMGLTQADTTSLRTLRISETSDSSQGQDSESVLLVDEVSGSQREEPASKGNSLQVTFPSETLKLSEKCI

- IC50 (EP4 receptor): 0.016 µM
- IC50 (EP1 receptor): > 3.2 µM
- IC50 (EP2 receptor): > 3.2 µM
- IC50 (EP3 receptor): > 3.2 µM
SMILES: O=C(O)CCCCCCN1C(=O)CCC1CCC(O)Cc1ccccc1 (stereo not drawn) [7-(2-(3-hydroxy-4-phenyl-butyl)-5-oxo-pyrrolidin-1-yl)-heptanoic acid]
- PGE2-like side effects (OVX rat model; OVX rats): No PGE2-like side effects were seen
- distal femoral BMC increased (OVX rat model; [1]): 8%
- distal femoral BMD increased (OVX rat model; [1]): 8%
- femoral shaft BMC increased (OVX rat model; [1]): 20%
- femoral shaft BMD increased (OVX rat model; [1]): 18%
- total femoral BMC increased (OVX rat model; [1]): 17%
- total femoral BMD increased (OVX rat model; [1]): 13%
- bone formation and bone restoration in established osteopenic OVX rats (OVX rat model): stimulates bone formation and restores bone
